Reference: US8865705B2, “Benzimidazole respiratory syncytial virus inhibitors” (Janssen R&D Ireland, priority 2010, dated 2014)
Read-outs that look alike come from different tables or passages of the source.

Columns and labels:
rgRSV224 virus = experiment: microbe, parasite or virus in culture; type: cell-based, respiratory syncytial virus (RSV); conditions: for EC50: read-out: WT activity EC50; for SI CC50/EC50: selectivity index, CC50 (HeLa cytotoxicity) over EC50 (rgRSV224)
Description: Black 96-well clear-bottom microtiter plates (Corning, Amsterdam, The Netherlands) were filled in duplicate using a customized robot system with serial 4-fold dilutions of compound in a final volume of 50 μl culture medium [RPMI medium without phenol red, 10% FBS, 0.04% gentamycin (50 mg/mL) and 0.5% DMSO]. Then, 100 μl of a HeLa cell suspension (5×10^4 cells/mL) in culture medium was added to each well followed by the addition of 50 μl rgRSV224 (MOI=0.02) virus in culture medium using a multidrop dispenser (Thermo Scientific, Erembodegem, Belgium). rgRSV224 virus is an engineered virus that includes an additional GFP gene (Hallak et al, 2000) and was in-licensed from the NIH (Bethesda, Md., USA). Medium, virus- and mock-infected controls were included in each test. Cells were incubated at 37° C. in a 5% CO2 atmosphere. Three days post-virus exposure, viral replication was quantified by measuring GFP expression in the cells by a MSM laser microscope (Tibotec, Beerse, Belgium). […] In parallel, compounds were incubated for three days in a set of white 96-well microtitier plates (Corning) and the cytotoxicity of compounds in HeLa cells was determined by measuring the ATP content of the cells using the ATPlite kit (PerkinElmer, Zaventem, Belgium) according to the manufacturer's instructions.

HeLa cells = experiment: Cytotoxicity in HeLa cells by ATP content (ATPlite kit); type: cell-based
Description: Black 96-well clear-bottom microtiter plates (Corning, Amsterdam, The Netherlands) were filled in duplicate using a customized robot system with serial 4-fold dilutions of compound in a final volume of 50 μl culture medium [RPMI medium without phenol red, 10% FBS, 0.04% gentamycin (50 mg/mL) and 0.5% DMSO]. Then, 100 μl of a HeLa cell suspension (5×10^4 cells/mL) in culture medium was added to each well followed by the addition of 50 μl rgRSV224 (MOI=0.02) virus in culture medium using a multidrop dispenser (Thermo Scientific, Erembodegem, Belgium). rgRSV224 virus is an engineered virus that includes an additional GFP gene (Hallak et al, 2000) and was in-licensed from the NIH (Bethesda, Md., USA). Medium, virus- and mock-infected controls were included in each test. Cells were incubated at 37° C. in a 5% CO2 atmosphere. Three days post-virus exposure, viral replication was quantified by measuring GFP expression in the cells by a MSM laser microscope (Tibotec, Beerse, Belgium). The EC50 was defined as the 50% inhibitory concentration for GFP expression. In parallel, compounds were incubated for three days in a set of white 96-well microtitier plates (Corning) and the cytotoxicity of compounds in HeLa cells was determined by measuring the ATP content of the cells using the ATPlite kit (PerkinElmer, Zaventem, Belgium) according to the manufacturer's instructions. The CC50 was defined as the 50% concentration for cytotoxicity.

[1] = Table 2, rgRSV224 in HeLa cells, GFP expression three days post-virus exposure
[2] = Table 1, rgRSV224 in HeLa cells, GFP expression three days post-virus exposure
[3] = Table 1, HeLa cells, three days, ATP content, read-out: Tox CC50
[4] = human respiratory syncytial virus, HeLa, 72 h

SMILES | EC50 (rgRSV224 virus; [1]) [nM] | SI CC50/EC50 (rgRSV224 virus; Table 2) | also measured
CS(=O)(=O)NC(=O)CCCn1c(Cn2c(=O)n(C3CC3)c3ccncc32)nc2cc(Br)ccc21 [P80] | 1 | >99444 | –
O=c1n(Cc2nc3cc(Br)ccc3n2CCCCF)c2cnccc2n1C1CC1 [P1] | – | – | EC50 (rgRSV224 virus; [2]): 0.033 nM; CC50 (HeLa cells; [3]): > 9.84 µM
CC(C)CCn1c(Cn2c(=O)n(C3CC3)c3ccncc32)nc2cc(Cl)ccc21 [P15] | – | – | EC50 (rgRSV224 virus; [2]): < 0.62 nM; CC50 (HeLa cells): > 98.4 µM
N#CCCCn1c(Cn2c(=O)n(C3CC3)c3ccccc32)nc2cc(Cl)ccc21 [P70] | 0.631 | >159787 | –
NC(=O)CCCn1c(Cn2c(=O)n(C3CC3)c3ccncc32)nc2cc(Br)ccc21 [P82] | 0.58 | >85761 | –
O=C(CCCn1c(Cn2c(=O)n(C3CC3)c3ccncc32)nc2cc(Cl)ccc21)N1CCOCC1 [P63] | 1 | >98994 | –
O=c1n(Cc2nc3cc(Br)ccc3n2CCCCF)c2cc(F)ccc2n1C1CC1 [P23] | – | – | EC50 (rgRSV224 virus; [2]): < 1.6 nM; CC50 (HeLa cells; [3]): > 9.84 µM
O=C(CCCn1c(Cn2c(=O)n(C3CC3)c3ccncc32)nc2cc(Br)ccc21)N1CCOCC1 [P48, 3-((5-bromo-1-(4-morpholino-4-oxobutyl)-1H-benzo[d]imidazol-2-yl)-methyl)-1-cyclopropyl-1H-imidazo[4,5-c]pyridin-2(3H)-one] | – | >102584 | EC50 (rgRSV224 virus; [4]): 0.97 nM
O=C(O)CCCn1c(Cn2c(=O)n(C3CC3)c3ccncc32)nc2cc(Cl)ccc21 [P45, 4-(5-chloro-2-((1-cyclopropyl-2-oxo-1H-imidazo[4,5-c]pyridin-3(2H)-yl)methyl)-1H-benzo[d]imidazol-1-yl)butanoic acid] | – | D. >19412 | EC50 (rgRSV224 virus; [4]): 5.15 nM
O=C(CCCn1c(Cn2c(=O)n(C3CC3)c3ccncc32)nc2cc(Br)ccc21)N1CCCCS1(=O)=O [P74] | 1.18 | >84529 | –
O=c1n(Cc2nc3cc(Br)ccc3n2CCCCO)c2cc(F)ccc2n1C1CC1 [P16] | – | – | EC50 (rgRSV224 virus; [2]): 0.744 nM; CC50 (HeLa cells): > 9.84 µM
O=c1n(Cc2nc3ccccc3n2CCCCO)c2cnccc2n1C1CC1 [Ref2, reference compound] | 3.98 | – | –
CC(C)CCn1c(Cn2c(=O)n(C3CC3)c3ccc(F)cc32)nc2cc(Cl)ccc21 [P28] | 2.32 | 14563 | –
CC(C)CCn1c(Cn2c(=O)n(C3CC3)c3ccccc32)nc2cc(Cl)ccc21 [P35] | 2.63 | 33466 | –
CCCCS(=O)(=O)NC(=O)CCCn1c(Cn2c(=O)n(C3CC3)c3ccncc32)nc2cc(Br)ccc21 [P81] | 7.25 | >13798 | –
O=c1n(Cc2nc3cc(Cl)ccc3n2CCCn2ccnc2)c2cnccc2n1C1CC1 [P51, 3-({5-chloro-1-[3-(1H-imidazol-1-yl)propyl]-1H-benzimidazol-2-yl}methyl)-1-cyclopropyl-1,3-dihydro-2H-imidazo[4,5-c]pyridin-2-one] | – | >401504 | EC50 (rgRSV224 virus; [4]): 0.25 nM
NS(=O)(=O)NC(=O)CCCn1c(Cn2c(=O)n(C3CC3)c3ccncc32)nc2cc(Br)ccc21 [P76, 4-(5-bromo-2-((1-cyclopropyl-2-oxo-1H-imidazo[4,5-c]pyridin-3(2H)-yl)methyl)-1H-benzo[d]imidazol-1-yl)-N-sulfamoylbutanamide] | – | >214887 | EC50 (rgRSV224 virus; [4]): 0.47 nM
O=c1n(Cc2nc3cc(Cl)ccc3n2CCCC(F)(F)F)c2cc(F)ccc2n1C1CC1 [P58] | 0.49 | 104559 | –
CC(C)(C)OC(=O)Cn1c(=O)n(Cc2nc3cc(Cl)ccc3n2CCCC(F)(F)F)c2cnccc21 [P60] | 1.68 | >59486 | –
CS(=O)(=O)CCCn1c(Cn2c(=O)n(C3CC3)c3ccncc32)nc2ccccc21 [Ref1, reference compound] | 2.5 | >4315 | –
O=C1c2ccccc2C(=O)N1CCCCn1c(Cn2c(=O)n(C3CC3)c3ccncc32)nc2cc(Cl)ccc21 [P46] | 0.57 | >44185 | –

SMILES | EC50 (rgRSV224 virus; [1]) [nM] | SI CC50/EC50 (rgRSV224 virus; Table 2) | also measured
O=C(CCn1c(Cn2c(=O)n(C3CC3)c3ccc(F)cc32)nc2cc(Cl)ccc21)N1CCOCC1 [P62] | 1.36 | >73334 | –
O=c1n(Cc2nc3cc(Cl)ccc3n2CCCCc2ccccn2)c2cnccc2n1C1CC1 [P47] | 0.76 | 84254 | –
CC(C)(C)OC(=O)CCCn1c(Cn2c(=O)n(C3CC3)c3ccncc32)nc2cc(Cl)ccc21 [P52] | 0.55 | 70937 | –
CN(C(=O)CCCn1c(Cn2c(=O)n(C3CC3)c3ccncc32)nc2cc(Cl)ccc21)S(=O)(=O)C1CC1 [P59, 4-(5-chloro-2-((1-cyclopropyl-2-oxo-1H-imidazo[4,5-c]pyridin-3(2H)-yl)methyl)-1H-benzo[d]imidazol-1-yl)-N-(cyclopropylsulfonyl)-N-methylbutanamide] | – | >604770 | EC50 (rgRSV224 virus; [4]): 0.17 nM
CC(C)(C)OC(=O)Cn1c(=O)n(Cc2nc3cc(Cl)ccc3n2CCCCF)c2cnccc21 [P33, tert-butyl (3-{[5-chloro-1-(4-fluorobutyl)-1H-benzimidazol-2-yl]methyl}-2-oxo-2,3-dihydro-1H-imidazo[4,5-c]pyridin-1-yl)acetate] | – | >49120 | EC50 (rgRSV224 virus; [4]): 1.9 nM
CCCS(=O)(=O)NC(=O)CCCn1c(Cn2c(=O)n(C3CC3)c3ccncc32)nc2cc(Br)ccc21 [P78] | 1.73 | >57893 | –
O=c1n(Cc2nc3cc(Cl)ccc3n2CCCCF)c2cnccc2n1C1CC1 [P31] | 0.19 | >267110 | –
O=c1n(Cc2nc3cc(Cl)ccc3n2CCCNc2ncccn2)c2cnccc2n1C1CC1 [P44] | 0.3 | 302162 | –
O=c1n(Cc2nc3cc(Cl)ccc3n2CCCc2ccccc2)c2cnccc2n1C1CC1 [P50] | 0.23 | 93799 | –
CNC(=O)CCCn1c(Cn2c(=O)n(C3CC3)c3ccncc32)nc2cc(Br)ccc21 [P83] | 0.9 | >111709 | –
O=C(CCCn1c(Cn2c(=O)n(C3CC3)c3ccncc32)nc2cc(Cl)ccc21)NS(=O)(=O)C1CC1 [P49, 4-(5-chloro-2-((1-cyclopropyl-2-oxo-1H-imidazo[4,5-c]pyridin-3 (2H)-yl)methyl)-1H-benzo[d]imidazol-1-yl)-N-(cyclopropylsulfonyl)butanamide] | – | >55412 | EC50 (rgRSV224 virus; [4]): 1.8 nM
O=c1n(Cc2ccc(F)cc2)c2ccncc2n1Cc1nc2cc(Cl)ccc2n1CCCCF [P41] | 0.16 | 503466 | –
O=C(CCn1c(Cn2c(=O)n(C3CC3)c3ccncc32)nc2cc(Cl)ccc21)N1CCOCC1 [P64] | 1.45 | >68795 | –
CN(C(=O)CCCn1c(Cn2c(=O)n(C3CC3)c3ccncc32)nc2cc(Br)ccc21)S(C)(=O)=O [P79] | 0.56 | >177178 | –
O=c1n(Cc2nc3cc(Cl)ccc3n2CCCCF)c2cnccc2n1CC(F)F [P40] | 0.048 | 2000000 | –
CN(C)C(=O)Cn1c(=O)n(Cc2nc3cc(Cl)ccc3n2CCCCF)c2cnccc21 [P71] | 2.5 | >39781 | –
O=C(CCCn1c(Cn2c(=O)n(C3CC3)c3ccncc32)nc2cc(Br)ccc21)NCCS(=O)(=O)n1ccnc1 [P38] | 0.22 | >445390 | –
O=C(CCCn1c(Cn2c(=O)n(C3CC3)c3ccncc32)nc2cc(Br)ccc21)N1CCCS1(=O)=O [P75] | 0.2 | >444590 | –
CS(=O)(=O)n1c(=O)n(Cc2nc3cc(Cl)ccc3n2CCCCF)c2cnccc21 [P34, 3-((5-chloro-1-(4-fluorobutyl)-1H-benzo[d]imidazol-2-yl)methyl)-1-(methylsulfonyl)-1H-imidazo[4,5-c]pyridin-2(3H)-one] | – | >1 048 580 | EC50 (rgRSV224 virus; [4]): 0.09 nM
CC(C)CCn1c(Cn2c(=O)n(C3CC3)c3ccc(F)cc32)nc2cc(Br)ccc21 [P32] | 2.53 | 25508 | –
N#CCCCn1c(Cn2c(=O)n(C3CC3)c3ccc(F)cc32)nc2cc(Cl)ccc21 [P73] | 1.58 | 23633 | –
